According to ChEMBL document CHEMBL1201862, “PubChem BioAssay data set” (2004):
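Growth conditions: 96-well plates. Treatment: test compound, 48 hours, 5 concentrations. Analysis: linear interpolation between bracketing concentrations; unreached endpoints set to highest concentration. Abbreviation: GI50, concentration required for 50% inhibition of growth.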 Calls of active or inactive are those of the source. Cut-off read from the data, not from the text of the source: active = GI50 up to about 1.1 µM and inactive = higher.

Assays:
Test in all cases: NCI tumour cell line growth inhibition, 48 h
[1] = tested on: MOLT-4
[2] = tested on: SF-295
[3] = tested on: KM12
[4] = tested on: OVCAR-4
[5] = tested on: NCI-H23
[6] = tested on: HCT-116
[7] = tested on: SK-OV-3
[8] = tested on: SN12C
[9] = tested on: T47D
[10] = tested on: SK-MEL-28
[11] = tested on: UO-31
[12] = tested on: NCI-H226
[13] = tested on: HT-29
[14] = tested on: NCI-H460
[15] = tested on: MCF7
[16] = tested on: MDA-MB-435
[17] = tested on: UACC-257
[18] = tested on: SW-620
[19] = tested on: OVCAR-8
[20] = tested on: DU-145
[21] = tested on: RXF 393
[22] = tested on: OVCAR-5
[23] = tested on: SF-268
[24] = tested on: CAKI-1
[25] = tested on: SNB-75
[26] = tested on: UACC-62
[27] = tested on: NCI/ADR-RES
[28] = tested on: MDA-N
[29] = tested on: PC-3
[30] = tested on: SK-MEL-2
[31] = tested on: M14
[32] = tested on: HOP-92
[33] = tested on: OVCAR-3
[34] = tested on: BT-549
[35] = tested on: HCT-15
[36] = tested on: SNB-19
[37] = tested on: ACHN
[38] = tested on: NCI-H522
[39] = tested on: TK-10
[40] = tested on: 786-0
[41] = tested on: EKVX
[42] = tested on: A498
[43] = tested on: HOP-62
[44] = tested on: SF-539
[45] = tested on: MDA-MB-231
[46] = tested on: Malme-3M
[47] = tested on: RPMI-8226
[48] = tested on: IGROV-1
[49] = tested on: LOX IMVI
[50] = tested on: COLO 205
[51] = tested on: A549
[52] = tested on: U-251
[53] = tested on: Hs-578T
[54] = tested on: SK-MEL-5
[55] = tested on: HL-60
[56] = tested on: CCRF-CEM
[57] = tested on: HCC 2998

CCCC1c2c(ccc3ccccc23)Oc2ccc3ccccc3c21
GI50 [1]: 37.6 µM (inactive)
GI50 [2]: 28.1 µM (inactive)
GI50 [3]: 39.3 µM (inactive)
GI50 [4]: > 100 µM (inactive)
GI50 [5]: 60.4 µM (inactive)
GI50 [6]: 20.7 µM (inactive)
GI50 [7]: > 100 µM (inactive)
GI50 [8]: 65.3 µM (inactive)
GI50 [9]: 14.6 µM (inactive)
GI50 [10]: 68.4 µM (inactive)
GI50 [11]: > 100 µM (inactive)
GI50 [12]: 60.3 µM (inactive)
GI50 [13]: 28.1 µM (inactive)
GI50 [14]: 88.3 µM (inactive)
GI50 [15]: 15.5 µM (inactive)
GI50 [16]: 41.4 µM (inactive)
GI50 [17]: 24.2 µM (inactive)
GI50 [18]: 82.4 µM (inactive)
GI50 [19]: > 100 µM (inactive)
GI50 [20]: 84.3 µM (inactive)
GI50 [21]: 29.1 µM (inactive)
GI50 [22]: 54.1 µM (inactive)
GI50 [23]: 79.8 µM (inactive)
GI50 [24]: > 100 µM (inactive)
GI50 [25]: > 100 µM (inactive)
GI50 [26]: 84.9 µM (inactive)
GI50 [27]: 94 µM (inactive)
GI50 [28]: 39.6 µM (inactive)
GI50 [29]: 64.4 µM (inactive)
GI50 [30]: 20.3 µM (inactive)
GI50 [31]: 74 µM (inactive)
GI50 [32]: > 100 µM (inactive)
GI50 [33]: 61.4 µM (inactive)
GI50 [34]: > 100 µM (inactive)
GI50 [35]: 31.6 µM
GI50 [36]: > 100 µM (inactive)
GI50 [37]: 31 µM (inactive)
GI50 [38]: 25.5 µM (inactive)
GI50 [39]: 35.7 µM (inactive)
GI50 [40]: > 100 µM (inactive)
GI50 [41]: 33.5 µM (inactive)
GI50 [42]: 23.7 µM (inactive)
GI50 [43]: > 100 µM (inactive)
GI50 [44]: > 100 µM (inactive)
GI50 [45]: 31.7 µM (inactive)
GI50 [46]: 57.3 µM (inactive)
GI50 [47]: 45.2 µM (inactive)
GI50 [48]: 50.7 µM (inactive)
GI50 [49]: 32.5 µM (inactive)
GI50 [50]: 41.9 µM (inactive)
GI50 [51]: 47.5 µM (inactive)
GI50 [52]: 40.2 µM (inactive)
GI50 [53]: > 100 µM (inactive)
GI50 [54]: 34.7 µM (inactive)

CC1=C(C)C(=O)C(C2=C(C3=CC(=O)C(C)=C(C)C3=O)C(=O)C(C)=C(C)C2=O)=CC1=O
GI50 [1]: 0.697 µM (active)
GI50 [2]: 17.7 µM (inactive)
GI50 [3]: 8.51 µM (inactive)
GI50 [55]: > 100 µM (inactive)
GI50 [4]: 1.79 µM (inactive)
GI50 [5]: 14.7 µM (inactive)
GI50 [6]: 5.45 µM (inactive)
GI50 [7]: 17.4 µM (inactive)
GI50 [8]: 13.9 µM (inactive)
GI50 [9]: 2.75 µM (inactive)
GI50 [10]: 6.87 µM (inactive)
GI50 [11]: 4.59 µM (inactive)
GI50 [12]: 11 µM (inactive)
GI50 [56]: > 100 µM (inactive)
GI50 [13]: 3.01 µM (inactive)
GI50 [14]: 14.9 µM (inactive)
GI50 [15]: 2.67 µM (inactive)
GI50 [16]: 3.52 µM (inactive)
GI50 [17]: 13.3 µM (inactive)
GI50 [18]: 3.32 µM (inactive)
GI50 [19]: 4.41 µM (inactive)
GI50 [20]: 14 µM (inactive)
GI50 [21]: 1.83 µM (inactive)
GI50 [22]: 7.85 µM (inactive)
GI50 [23]: 12.6 µM (inactive)
GI50 [24]: 3.44 µM (inactive)
GI50 [25]: 16.6 µM (inactive)
GI50 [26]: 10.5 µM (inactive)
GI50 [27]: 1.13 µM (inactive)
GI50 [28]: 2.65 µM (inactive)
GI50 [29]: 4.62 µM (inactive)
GI50 [57]: 15.2 µM (inactive)
GI50 [30]: 14.5 µM (inactive)
GI50 [31]: 10 µM (inactive)
GI50 [32]: 0.61 µM (active)
GI50 [34]: 10 µM (inactive)
GI50 [35]: 0.294 µM
GI50 [36]: > 56.8 µM (inactive)
GI50 [37]: 5.79 µM (inactive)
GI50 [38]: 1.95 µM (inactive)
GI50 [39]: 12 µM (inactive)
GI50 [40]: 5.06 µM (inactive)
GI50 [41]: 20.8 µM (inactive)
GI50 [42]: 14.3 µM (inactive)
GI50 [43]: 18.7 µM (inactive)
GI50 [44]: 2.17 µM (inactive)
GI50 [45]: 2.07 µM (inactive)
GI50 [46]: 3.1 µM (inactive)
GI50 [48]: 10.9 µM (inactive)
GI50 [49]: 2.57 µM (inactive)
GI50 [50]: 2.89 µM (inactive)
GI50 [51]: 30.3 µM (inactive)
GI50 [52]: 3.68 µM (inactive)
GI50 [53]: 16.1 µM (inactive)
GI50 [54]: 2.15 µM (inactive)
